The results in this text go back to ChEMBL document CHEMBL5303573, “Mapping human microbiome drug metabolism by gut bacteria and their genes” (Nature, 2019).

Each structure is given as a SMILES string.

One data set is described as follows: The drug is tested on Clostridium sp. strain: fecal isolate for biotransformation. The drug concentrations were measured before and after a 12-h incubation by liquid-chromatography-coupled mass spectrometry (LC–MS). To be noted: 2 µM.
On to `CCN(CC)CC#CCOC(=O)C(O)(c1ccccc1)C1CCCCC1.Cl` (configuration not stated) [OXYBUTYNIN CHLORIDE], for which the “Bacterial Biotransformation” value was “Compound metabolized”.

As for `CCc1nn(CCCN2CCN(c3cccc(Cl)c3)CC2)c(=O)n1CCOc1ccccc1` [NEFAZODONE], the “Bacterial Biotransformation” value is reported as “Compound NOT metabolized”.

For the next data set the following is noted: bifidobacterium adolescentis, 12 h, 2 µM.
Description: The drug is tested on Bifidobacterium adolescentis strain: ATCC 15703 for biotransformation. The drug concentrations were measured before and after a 12-h incubation by liquid-chromatography-coupled mass spectrometry (LC–MS)
As to `CCN(CC)CC#CCOC(=O)C(O)(c1ccccc1)C1CCCCC1.Cl` (configuration not stated) [OXYBUTYNIN CHLORIDE], the “Bacterial Biotransformation” value is recorded as “Compound NOT metabolized”.

As to `CCc1nn(CCCN2CCN(c3cccc(Cl)c3)CC2)c(=O)n1CCOc1ccccc1` [NEFAZODONE], the “Bacterial Biotransformation” value is given as “Compound NOT metabolized”.

A short description of the next data set: The drug is tested on Enterococcus faecalis strain: V583 for biotransformation. The drug concentrations were measured before and after a 12-h incubation by liquid-chromatography-coupled mass spectrometry (LC–MS). To be noted: 2 µM.
As for `CCN(CC)CC#CCOC(=O)C(O)(c1ccccc1)C1CCCCC1.Cl` (configuration not stated) [OXYBUTYNIN CHLORIDE], the “Bacterial Biotransformation” value was “Compound metabolized”.

As for `CCc1nn(CCCN2CCN(c3cccc(Cl)c3)CC2)c(=O)n1CCOc1ccccc1` [NEFAZODONE], the “Bacterial Biotransformation” value is “Compound NOT metabolized”.

A further data set is described as follows: The drug is tested on Escherichia coli strain: BW25113 for biotransformation. The drug concentrations were measured before and after a 12-h incubation by liquid-chromatography-coupled mass spectrometry (LC–MS). The following applies: 2 µM.
As to `CCN(CC)CC#CCOC(=O)C(O)(c1ccccc1)C1CCCCC1.Cl` (configuration not stated) [OXYBUTYNIN CHLORIDE], the “Bacterial Biotransformation” value is listed as “Compound NOT metabolized”.

Turning to `CCc1nn(CCCN2CCN(c3cccc(Cl)c3)CC2)c(=O)n1CCOc1ccccc1` [NEFAZODONE], the “Bacterial Biotransformation” value is “Compound NOT metabolized”.

The conditions of a further data set: bacteroides fragilis, 12 h, 2 µM.
Description: The drug is tested on Bacteroides fragilis strain: 3397 (T10) for biotransformation. The drug concentrations were measured before and after a 12-h incubation by liquid-chromatography-coupled mass spectrometry (LC–MS)
For `CCc1nn(CCCN2CCN(c3cccc(Cl)c3)CC2)c(=O)n1CCOc1ccccc1` [NEFAZODONE], the “Bacterial Biotransformation” value is reported as “Compound NOT metabolized”.

The conditions of a further data set: bacteroides thetaiotaomicron, 12 h, 2 µM.
Description: The drug is tested on Bacteroides thetaiotaomicron strain: VPI-5482 for biotransformation. The drug concentrations were measured before and after a 12-h incubation by liquid-chromatography-coupled mass spectrometry (LC–MS)
Turning to `CCN(CC)CC#CCOC(=O)C(O)(c1ccccc1)C1CCCCC1.Cl` (configuration not stated) [OXYBUTYNIN CHLORIDE], the “Bacterial Biotransformation” value is “Compound NOT metabolized”.

As for `CCc1nn(CCCN2CCN(c3cccc(Cl)c3)CC2)c(=O)n1CCOc1ccccc1` [NEFAZODONE], the “Bacterial Biotransformation” value is listed as “Compound NOT metabolized”.

A further data set in a line: The drug is tested on Providencia rettgeri strain: DSM1131 for biotransformation. The drug concentrations were measured before and after a 12-h incubation by liquid-chromatography-coupled mass spectrometry (LC–MS). The class given is ADME. Details: dose 2 uM, timepoint 0 vs 12 hours. The following applies: 2 µM.
Turning to `CCN(CC)CC#CCOC(=O)C(O)(c1ccccc1)C1CCCCC1.Cl` (configuration not stated) [OXYBUTYNIN CHLORIDE], the “Bacterial Biotransformation” value is listed as “Compound NOT metabolized”.

Turning to `CCc1nn(CCCN2CCN(c3cccc(Cl)c3)CC2)c(=O)n1CCOc1ccccc1` [NEFAZODONE], the “Bacterial Biotransformation” value is on record as “Compound NOT metabolized”.

Another data set in a line: The drug is tested on Blautia hansenii strain: DSM20583 for biotransformation. The drug concentrations were measured before and after a 12-h incubation by liquid-chromatography-coupled mass spectrometry (LC–MS). To be noted: 2 µM.
Consider `CCN(CC)CC#CCOC(=O)C(O)(c1ccccc1)C1CCCCC1.Cl` (configuration not stated) [OXYBUTYNIN CHLORIDE], for which the “Bacterial Biotransformation” value is “Compound metabolized”.

As to `CCc1nn(CCCN2CCN(c3cccc(Cl)c3)CC2)c(=O)n1CCOc1ccccc1` [NEFAZODONE], the “Bacterial Biotransformation” value was “Compound NOT metabolized”.

The nature of a further data set: The drug is tested on Clostridium sporogenes strain: ATCC15579 for biotransformation. The drug concentrations were measured before and after a 12-h incubation by liquid-chromatography-coupled mass spectrometry (LC–MS). To be noted: 2 µM.
In the case of `CCN(CC)CC#CCOC(=O)C(O)(c1ccccc1)C1CCCCC1.Cl` (configuration not stated) [OXYBUTYNIN CHLORIDE], the “Bacterial Biotransformation” value was “Compound NOT metabolized”.

In the case of `CCc1nn(CCCN2CCN(c3cccc(Cl)c3)CC2)c(=O)n1CCOc1ccccc1` [NEFAZODONE], the “Bacterial Biotransformation” value is on record as “Compound NOT metabolized”.

Another data set is described as follows: The drug is tested on Clostridium scindens strain: ATCC35704 for biotransformation. The drug concentrations were measured before and after a 12-h incubation by liquid-chromatography-coupled mass spectrometry (LC–MS). The following applies: 2 µM.
`CCN(CC)CC#CCOC(=O)C(O)(c1ccccc1)C1CCCCC1.Cl` (configuration not stated) [OXYBUTYNIN CHLORIDE]: the “Bacterial Biotransformation” value is on record as “Compound NOT metabolized”.

In the case of `CCc1nn(CCCN2CCN(c3cccc(Cl)c3)CC2)c(=O)n1CCOc1ccccc1` [NEFAZODONE], the “Bacterial Biotransformation” value is given as “Compound NOT metabolized”.

For the next data set the following is noted: parabacteroides distasonis, 12 h, 2 µM.
Description: The drug is tested on Parabacteroides distasonis strain: ATCC8503 for biotransformation. The drug concentrations were measured before and after a 12-h incubation by liquid-chromatography-coupled mass spectrometry (LC–MS)
For the compound `CCN(CC)CC#CCOC(=O)C(O)(c1ccccc1)C1CCCCC1.Cl` (configuration not stated) [OXYBUTYNIN CHLORIDE], the “Bacterial Biotransformation” value is on record as “Compound NOT metabolized”.

`CCc1nn(CCCN2CCN(c3cccc(Cl)c3)CC2)c(=O)n1CCOc1ccccc1` [NEFAZODONE]: the “Bacterial Biotransformation” value is on record as “Compound NOT metabolized”.

A further data set in a line: The drug is tested on Bifidobacterium breve strain: DSM20213 for biotransformation. The drug concentrations were measured before and after a 12-h incubation by liquid-chromatography-coupled mass spectrometry (LC–MS). The following applies: 2 µM.
As for `CCN(CC)CC#CCOC(=O)C(O)(c1ccccc1)C1CCCCC1.Cl` (configuration not stated) [OXYBUTYNIN CHLORIDE], the “Bacterial Biotransformation” value is “Compound NOT metabolized”.

Consider `CCc1nn(CCCN2CCN(c3cccc(Cl)c3)CC2)c(=O)n1CCOc1ccccc1` [NEFAZODONE], for which the “Bacterial Biotransformation” value is reported as “Compound NOT metabolized”.

A further data set in a line: The drug is tested on Ruminococcus lactaris strain: ATCC29176 for biotransformation. The drug concentrations were measured before and after a 12-h incubation by liquid-chromatography-coupled mass spectrometry (LC–MS). To be noted: 2 µM.
Consider `CCN(CC)CC#CCOC(=O)C(O)(c1ccccc1)C1CCCCC1.Cl` (configuration not stated) [OXYBUTYNIN CHLORIDE], for which the “Bacterial Biotransformation” value was “Compound NOT metabolized”.

On to `CCc1nn(CCCN2CCN(c3cccc(Cl)c3)CC2)c(=O)n1CCOc1ccccc1` [NEFAZODONE], for which the “Bacterial Biotransformation” value is recorded as “Compound NOT metabolized”.

Another data set can be described thus: The drug is tested on Bacteroides caccae strain: ATCC43185 for biotransformation. The drug concentrations were measured before and after a 12-h incubation by liquid-chromatography-coupled mass spectrometry (LC–MS). The following applies: 2 µM.
For `CCN(CC)CC#CCOC(=O)C(O)(c1ccccc1)C1CCCCC1.Cl` (configuration not stated) [OXYBUTYNIN CHLORIDE], the “Bacterial Biotransformation” value is reported as “Compound NOT metabolized”.

For `CCc1nn(CCCN2CCN(c3cccc(Cl)c3)CC2)c(=O)n1CCOc1ccccc1` [NEFAZODONE], the “Bacterial Biotransformation” value is “Compound NOT metabolized”.

A short description of a further data set: The drug is tested on Bacteroides cellulosilyticus strain: DSM14838 for biotransformation. The drug concentrations were measured before and after a 12-h incubation by liquid-chromatography-coupled mass spectrometry (LC–MS). The following applies: 2 µM.
Regarding `CCN(CC)CC#CCOC(=O)C(O)(c1ccccc1)C1CCCCC1.Cl` (configuration not stated) [OXYBUTYNIN CHLORIDE], the “Bacterial Biotransformation” value is recorded as “Compound NOT metabolized”.

Regarding `CCc1nn(CCCN2CCN(c3cccc(Cl)c3)CC2)c(=O)n1CCOc1ccccc1` [NEFAZODONE], the “Bacterial Biotransformation” value is listed as “Compound NOT metabolized”.

The next data set is described as follows: The drug is tested on Bacteroides vulgatus strain: ATCC8482 for biotransformation. The drug concentrations were measured before and after a 12-h incubation by liquid-chromatography-coupled mass spectrometry (LC–MS). To be noted: phocaeicola vulgatus, 2 µM.
Turning to `CCN(CC)CC#CCOC(=O)C(O)(c1ccccc1)C1CCCCC1.Cl` (configuration not stated) [OXYBUTYNIN CHLORIDE], the “Bacterial Biotransformation” value is “Compound metabolized”.

For another data set the following is noted: parabacteroides johnsonii, 12 h, 2 µM.
Description: The drug is tested on Parabacteroides johnsonii strain: DSM18315 for biotransformation. The drug concentrations were measured before and after a 12-h incubation by liquid-chromatography-coupled mass spectrometry (LC–MS)
`CCN(CC)CC#CCOC(=O)C(O)(c1ccccc1)C1CCCCC1.Cl` (configuration not stated) [OXYBUTYNIN CHLORIDE]: the “Bacterial Biotransformation” value is on record as “Compound NOT metabolized”.

Regarding `CCc1nn(CCCN2CCN(c3cccc(Cl)c3)CC2)c(=O)n1CCOc1ccccc1` [NEFAZODONE], the “Bacterial Biotransformation” value is listed as “Compound NOT metabolized”.

Another data set in a line: The drug is tested on Odoribacter splanchnicus strain: fecal isolate for biotransformation. The drug concentrations were measured before and after a 12-h incubation by liquid-chromatography-coupled mass spectrometry (LC–MS). To be noted: 2 µM.
For the compound `CCN(CC)CC#CCOC(=O)C(O)(c1ccccc1)C1CCCCC1.Cl` (configuration not stated) [OXYBUTYNIN CHLORIDE], the “Bacterial Biotransformation” value is reported as “Compound metabolized”.

Take `CCc1nn(CCCN2CCN(c3cccc(Cl)c3)CC2)c(=O)n1CCOc1ccccc1` [NEFAZODONE]: the “Bacterial Biotransformation” value is on record as “Compound NOT metabolized”.

For the next data set the following is noted: segatella copri, 12 h, 2 µM.
Description: The drug is tested on Prevotella copri strain: DSM18205 for biotransformation. The drug concentrations were measured before and after a 12-h incubation by liquid-chromatography-coupled mass spectrometry (LC–MS)
On to `CCc1nn(CCCN2CCN(c3cccc(Cl)c3)CC2)c(=O)n1CCOc1ccccc1` [NEFAZODONE], for which the “Bacterial Biotransformation” value was “Compound NOT metabolized”.

For a further data set the following is noted: anaerostipes sp., 12 h, 2 µM.
Description: The drug is tested on Anaerostipes sp. strain: fecal isolate for biotransformation. The drug concentrations were measured before and after a 12-h incubation by liquid-chromatography-coupled mass spectrometry (LC–MS)
For `CCN(CC)CC#CCOC(=O)C(O)(c1ccccc1)C1CCCCC1.Cl` (configuration not stated) [OXYBUTYNIN CHLORIDE], the “Bacterial Biotransformation” value is “Compound NOT metabolized”.

Take `CCc1nn(CCCN2CCN(c3cccc(Cl)c3)CC2)c(=O)n1CCOc1ccccc1` [NEFAZODONE]: the “Bacterial Biotransformation” value was “Compound NOT metabolized”.
